Measured values published in ChEMBL document CHEMBL1148821, “4-anilino-5-carboxamido-2-pyridone derivatives as noncompetitive inhibitors of mitogen-activated protein kinase kinase” (J Med Chem, 2007).

Legend:
[1] = Toxicity in colon 26 tumor-bearing CD2F1 mouse assessed as lethality at 100 mg/kg; format: organism-based; set-up: dose 100 mg/kg; conditions: in vivo, read-out: Activity
[2] = Toxicity in colon 26 tumor-bearing CD2F1 mouse assessed as lethality at 200 mg/kg; format: organism-based; set-up: dose 200 mg/kg; conditions: in vivo, read-out: Activity

Compound: Cn1cc(C(N)=O)c(Nc2ccc(I)cc2F)cc1=O
- mortality [1]: 40%
- mortality [2]: 100%
